Experiment [1] has as its system Rat Cornea Neovascularization. Kind of experiment: Rat cornea neovascularization (bFGF/Hydron pellet implantation). In kind it is in vivo, Sprague Dawley rats. Particulars: day seven post-implantation. As to the method: […] Louis, MO) were pipetted into the tip of a sterile Teflon rod. After drying for 1-2 hours, the pellets were stored at 4 °C.
A small (about 2 mm) radial incision at 1 mm from the center of the cornea was performed in anesthetized Sprague Dawley rats. With a curved iris spatula, an intrastromal pocket was made to a distance of 1 mm from the limbus-the circular blood vessels that surround the cornea. A single pellet was implanted. Antibiotic ointment (neosporin) was applied post surgery to the operated eye to prevent infection and to decrease inflammation.
At day seven post-implantation, neovascularization was measured through a slitlamp biomicroscopy (Nikon NS-1), connected to an image analysis system (Leica Qwin). The response was calculated by colorimetrically detecting the area of new blood vessels, and calculating the new vessel surface area in µm^2.

For experiment [2], the system named is Human Microvascular Endothelial Cells. Kind of experiment: Human microvascular endothelial cell (HMVEC) migration assay, modified Boyden chamber. In kind it is cell-based. Particulars: activators 15 ng/ml bFGF/VEGF, 4 hours at 37 °C. As to the method: The human microvascular endothelial (HMVEC) migration assay was run according to the procedure of S. S. Tolsma, O. V. Volpert, D. J. Good, W. F. Frazier, P. J. Polverini and N. Bouck, J. Cell Biol. 122, 497-511 (1993).
The HMVEC migration assay was carried out using Human Microvascular Endothelial Cells-Dermal (single donor) and Human Microvascular Endothelial Cells, (neonatal). The BCE or HMVEC cells were starved overnight in DME containing 0.1 % bovine serum albumin (BSA). Cells were then harvested with trypsin and resuspended in DME with 0.1 % BSA at a concentration of 1.5 X 10^6 cells per ml. Cells were added to the bottom of a 48 well modified Boyden chamber (Nucleopore Corporation, Cabin John, MD). The chamber was assembled and inverted, and cells were allowed to attach for 2 hours at 37 °C to polycarbonate chemotaxis membranes (5 µm pore size) that had been soaked in 0.1% gelatin overnight and dried. The chamber was then reinverted, and test substances (total volume of 50 µl), including activators, 15 ng/ml bFGF/VEGF, were added to the wells of the upper chamber. The apparatus was incubated for 4 hours at 37 °C. Membranes were recovered, fixed and stained (Diff Quick, Fisher Scientific) and the number of cells that had migrated to the upper chamber per […] high power fields counted. Background migration to DME + 0.1 BSA was subtracted and the data reported as the number of cells migrated per 10 high power fields (400X) or, when results from multiple experiments were combined, as the percent inhibition of migration compared to a positive control.

Peptide text beside a SMILES is read from it.

For the compound `CCC[C@H](NC(=O)[C@@H](NC(=O)[C@H](NC(=O)[C@@H](NC(=O)CNC(=O)CN(C)C(C)=O)C(C)C)[C@H](C)CC)[C@@H](C)O)C(=O)N[C@H](C(=O)N[C@@H](CCCNC(=N)N)C(=O)N1CCC[C@H]1C(=O)NCC)[C@@H](C)CC` [Example 1, N-Ac-Sar-Gly-Val-D-Ile-Thr-Nva-Ile-Arg-ProNHCH2CH3] (HELM PEPTIDE1{[ac].[Sar].G.V.[dI].T.[Nva].I.R.P.[CCN[*:1]]}$$$$V2.0), the “% Inhibition” value in experiment [1] (dose 5 µM in pellet with 100 ng bFGF, 5 corneas) is listed as 74.8%; in experiment [1] (dose 6 µM in pellet with 100 ng bFGF, 4 corneas) it was 71.5%; in experiment [1] (dose 10 µM in pellet with 100 ng bFGF, 6 corneas) it was 92.6%.

For the compound `CCC[C@H](NC(=O)[C@@H](NC(=O)[C@H](NC(=O)[C@@H](NC(=O)CNC(=O)CN(C)C(C)=O)C(C)C)[C@H](C)CC)[C@@H](C)O)C(=O)N[C@H](C(=O)N[C@@H](CCCNC(=N)N)C(=O)N1CCC[C@H]1C(=O)NC)[C@@H](C)CC` [Example 3, N-Ac-Sar-Gly-Val-D-Ile-Thr-Nva-Ile-Arg-ProNHCH3] (HELM PEPTIDE1{[ac].[Sar].G.V.[dI].T.[Nva].I.R.P.[CN[*:1]]}$$$$V2.0), the “% Inhib. @ 20 nM” value in experiment [2] amounted to 56.0%.

`CCC[C@H](NC(=O)[C@@H](NC(=O)[C@H](NC(=O)[C@@H](NC(=O)CNC(=O)CN(C)C(C)=O)C(C)C)[C@H](C)CC)[C@@H](C)O)C(=O)N[C@H](C(=O)N[C@@H](CCCNC(=N)N)C(=O)N1CCC[C@H]1C(=O)NCCC1CCCCC1)[C@@H](C)CC` [Example 12, N-Ac-Sar-Gly-Val-D-Ile-Thr-Nva-Ile-Arg-ProNHCH2CH2-cyclohexyl] (HELM PEPTIDE1{[ac].[Sar].G.V.[dI].T.[Nva].I.R.P.[C1CCC(CCN[*:1])CC1]}$$$$V2.0): the “% Inhib. @ 20 nM” value in experiment [2] is on record as 55.8%.

Regarding `CCCCCCCC[C@H](NC(=O)[C@@H](NC(=O)[C@H](NC(=O)[C@@H](NC(=O)CNC(=O)CN(C)C(C)=O)C(C)C)[C@H](C)CC)[C@@H](C)O)C(=O)N[C@H](C(=O)N[C@@H](CCCNC(=N)N)C(=O)N1CCC[C@H]1C(=O)NCC)[C@@H](C)CC` [Example 50, N-Ac-Sar-Gly-Val-D-Ile-Thr-Octylgly-Ile-Arg-ProNHCH2CH3] (HELM PEPTIDE1{[ac].[Sar].G.V.[dI].T.[CCCCCCCC[C@H](N[*:1])C(=O)[*:2]].I.R.P.[CCN[*:1]]}$$$$V2.0), the “% Inhib. @ 20 nM” value in experiment [2] turned out to be 71.6%.

`CCC[C@H](NC(=O)[C@@H](NC(=O)[C@H](NC(=O)[C@@H](NC(=O)CNC(=O)CN(C)C(=O)CCCCCNC(C)=O)C(C)C)[C@H](C)CC)[C@@H](C)O)C(=O)N[C@H](C(=O)N[C@@H](CCCNC(=N)N)C(=O)N1CCC[C@H]1C(=O)NCC)[C@@H](C)CC` [Example 63, N-[6-N'-Acetyl-(CH2)5C(O)]-Sar-Gly-Val-D-Ile-Thr-Nva-Ile-Arg-ProNHCH2CH3] (HELM PEPTIDE1{[ac].[O=C(CCCCCN[*:1])[*:2]].[Sar].G.V.[dI].T.[Nva].I.R.P.[CCN[*:1]]}$$$$V2.0): the “% Inhib. @ 10 nM” value in experiment [2] stood at 82.4%.

Consider “N-Ac-Sar-Gly-Val-D-Ile-Thr-Nva-Ile-Arg-ProNHethyl-1-(R)-cyclohexyl [Example 8]”, for which the “% Inhib. @ 10 nM” value in experiment [2] worked out at 88.2%.

Consider “N-Cyclohexylacetyl-Sar-Gly-Val-D-Ile-Tlu-Nva-Ile-Arg-ProNHCH2CH3 [Example 52]”, for which the “% Inhib. @ 20 nM” value in experiment [2] stood at 46.5%.

(Values after patent EP1078002B1, “PEPTIDE ANTIANGIOGENIC DRUGS” (ABBOTT LABORATORIES, priority 1998, dated 1999).)
